From patent publication US20240417372A1, “ESTERS OF A RETINOID AND BAKUCHIOL AND PREPARATIONS THEREOF” (Conagen Inc., priority 2021, published 2024)

Experiments:
Type in all cases: cell-based
Conditions in all cases: for Fold Activation: RLU vs DMSO, 23 hours
RAR beta = molecular target: T1, RAR beta (Homo sapiens, UniProt P10826); assay: RAR beta Gal4-hybrid luciferase reporter cell agonist assay
T1 sequence (P10826 183-417 limits assumed): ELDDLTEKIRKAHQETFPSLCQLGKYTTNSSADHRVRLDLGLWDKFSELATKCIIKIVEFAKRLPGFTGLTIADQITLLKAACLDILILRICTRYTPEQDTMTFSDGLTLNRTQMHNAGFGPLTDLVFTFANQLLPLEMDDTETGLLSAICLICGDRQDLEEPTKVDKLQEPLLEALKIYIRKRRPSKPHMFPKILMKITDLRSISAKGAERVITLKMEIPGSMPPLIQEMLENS
Method: (§1) Reporter Cells (Indigo Biosciences, catalog #IB02201, IB02101, IB00821) used in the assays express a receptor hybrid in which the native N-terminal DNA binding domain (DBD) has been replaced with that of the yeast Gal4 DBD. The reporter gene, firefly luciferase, is functionally linked to the Gal4 upstream activation sequence (UAS). Receptor assays were performed as described in Steps 1 to 3 below.
(§2) Step 1: A suspension of Reporter Cells was prepared in Cell Recovery Medium (CRM: containing charcoal-stripped FBS) and 100 μl of the Reporter Cell suspension was dispensed into wells of a white 96-well assay plate.
(§3) Step 2: Test and reference compound master stocks were prepared as solutions at 1,000× concentration’ in DMSO relative to the final treatment concentration. This intermediate stock was subsequently diluted directly into INDIGO Biosciences's Compound Screening Medium (CSM; containing charcoal-stripped FBS) to generate ‘2×-concentration’ treatment media. 100 μL of each prepared treatment medium was dispensed into duplicate assay wells pre-dispensed with a 100 μL suspension of Reporter Cells, thereby achieving the desired final treatment concentrations. The concentration of residual DMSO in all assay wells was 0.1% for the test and reference compounds. Assay plates were incubated at 37° C., 5% CO2 and ˜70% humidity for 23 hours. DMSO control was used to determine background activity. Retinoic acid was used with its EC100 concentration to show 100% activity of each receptor. Retinol was used as positive control.
(§4) Step 3: Following the incubation period, treatment media were discarded and 100 μL/well of Luciferase Detection Reagent was added per well to determine receptor activity in terms of relative luminescence units (RLUs). Data processing: fold activation: [Ave RLU Test Cmpd/Ave RLU DMSO].

RAR gamma = RAR gamma Gal4-hybrid luciferase reporter cell agonist assay
Method: as §1, §2, §3, §4

RAR alpha = molecular target: T2, RAR alpha (Homo sapiens, UniProt P10276); assay: RAR alpha Gal4-hybrid luciferase reporter cell agonist assay
T2 sequence (P10276 183-417 limits assumed): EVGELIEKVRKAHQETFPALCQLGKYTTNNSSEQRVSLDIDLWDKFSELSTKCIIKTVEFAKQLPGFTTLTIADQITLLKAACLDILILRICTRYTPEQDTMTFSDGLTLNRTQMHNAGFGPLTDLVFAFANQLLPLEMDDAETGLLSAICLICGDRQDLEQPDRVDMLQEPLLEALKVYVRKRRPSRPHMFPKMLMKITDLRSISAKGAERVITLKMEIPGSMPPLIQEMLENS
Method: as §1, §2, §3, §4

## C=C[C@](C)(/C=C/c1ccc(OC(=O)/C=C(C)/C=C/C=C(C)/C=C/C2=C(C)CCCC2(C)C)cc1)CCC=C(C)C [Bakuchoyl retinoate of Formula I]
RAR beta; RAR beta, 0.1 μM
  Fold Activation: 12.6
RAR beta; RAR beta, 1 μM
  Fold Activation: 169
RAR beta; RAR beta, at 0.1 μm and 0.01 μm
  activity compared with retinol (in words): more active than retinol
RAR beta; summary of Table 1
  agonist activity towards RAR beta (in words): exhibited agonist activity
RAR gamma; RAR gamma, 0.1 μM
  Fold Activation: 41.0
RAR gamma; RAR gamma, 1 μM
  Fold Activation: 541
RAR gamma; RAR gamma, at 0.1 μm and 0.01 μm
  activity compared with retinol (in words): more active than retinol
RAR gamma; summary of Table 1
  agonist activity towards RAR gamma (in words): exhibited agonist activity
RAR alpha; RAR alpha, 0.1 μM
  Fold Activation: 26.0
RAR alpha; RAR alpha, 1 μM
  Fold Activation: 979
RAR alpha; RAR alpha, at 0.1 μm and 0.01 μm
  activity compared with retinol (in words): more active than retinol
RAR alpha; summary of Table 1
  agonist activity towards RAR alpha (in words): exhibited agonist activity

## CC1=C(/C=C/C(C)=C/C=C/C(C)=C/C(=O)O)C(C)(C)CCC1 [Retinoic acid, reference compound]
RAR gamma; RAR gamma, 0.1 μM (EC100 concentration of retinoic acid)
  Fold Activation: 706

## CC1=C(/C=C/C(C)=C/C=C/C(C)=C/CO)C(C)(C)CCC1 [Retinol, reference compound]
RAR beta; RAR beta, 0.1 μM
  Fold Activation: 4.91
RAR beta; RAR beta, 1 μM
  Fold Activation: 127
RAR gamma; RAR gamma, 0.1 μM
  Fold Activation: 18.5
RAR gamma; RAR gamma, 1 μM
  Fold Activation: 368
RAR alpha; RAR alpha, 0.1 μM
  Fold Activation: 6.35
RAR alpha; RAR alpha, 1 μM
  Fold Activation: 518
